Earlier results in PMC5074076, “Novel minimal physiologically-based model for the prediction of passive tubular reabsorption and renal excretion clearance” (European Journal of Pharmaceutical Sciences, 2016).

Conditions: healthy subjects; plasma and urine data from same subjects; normalised for subject weight and body surface area where necessary; ref Table S2.1; cited from earlier work

| Compound | Overall weighted mean CLR |
| --- | --- |
| N[C@@H](CC(=O)N1CCn2c(nnc2C(F)(F)F)C1)Cc1cc(F)c(F)cc1F [Sitagliptin] | 371.2 mL/min |
| Cn1nnnc1SCC1=C(C(=O)O)N2C(=O)[C@@H](NC(=O)[C@H](O)c3ccccc3)[C@H]2SC1 [Cefamandole] | 162.3 mL/min |
| CC(C)NCC(O)COc1cccc2[nH]ccc12 (stereo not drawn) [Pindolol] | 210.9 mL/min |
| CCCCC(=O)N(Cc1ccc(-c2ccccc2-c2nnn[nH]2)cc1)[C@H](C(=O)O)C(C)C [Valsartan] | 11.2 mL/min |
| O=C(NC[C@H]1CN(c2ccc(N3CCOCC3=O)cc2)C(=O)O1)c1ccc(Cl)s1 [Rivaroxaban] | 49.8 mL/min |
| CN1CCN(C(=O)OC2c3nccnc3C(=O)N2c2ccc(Cl)cn2)CC1 (stereo not drawn) [Zopiclone] | 13.0 mL/min |
| CCS(=O)(=O)CCn1c([N+](=O)[O-])cnc1C [Tinidazole] | 11.3 mL/min |
| C=CC1=C(C(=O)O)N2C(=O)[C@@H](NC(=O)/C(=N\OCC(=O)O)c3csc(N)n3)[C@H]2SC1 [Cefixime] | 32.5 mL/min |
| CCC(CC)O[C@@H]1C=C(C(=O)O)C[C@H](N)[C@H]1NC(C)=O [Oseltamivir carboxylate] | 231.7 mL/min |
| Clc1ccc2nsnc2c1NC1=NCCN1 [Tizanidine] | 66.2 mL/min |
| CO/N=C(\C(=O)N[C@@H]1C(=O)N2C(C(=O)O)=CCS[C@H]12)c1csc(N)n1 [Ceftizoxime] | 102.2 mL/min |
| Nc1nc2c(ncn2CCC(CO)CO)c(=O)[nH]1 [Penciclovir] | 439.6 mL/min |
| CCCC(CCC)C(=O)O [Valproic Acid] | 0.2 mL/min |
| Oc1ccc(/C=C/c2cc(O)cc(O)c2)cc1 [Resveratrol] | 16.6 mL/min |
| NC(=O)c1cnccn1 [Pyrazinamide] | 2.0 mL/min |
| CNCCCN1c2ccccc2CCc2ccccc21 [Desipramine] | 28.6 mL/min |
| CC1(C)S[C@@H]2[C@H](NC(=O)Cc3ccccc3)C(=O)N2[C@H]1C(=O)O [Benzylpenicillin] | 316.8 mL/min |
| c1cnc2cc3c(cc2n1)[C@@H]1CNC[C@H]3C1 [Varenicline] | 118.6 mL/min |
| C[C@@H](CN1CC(=O)NC(=O)C1)N1CC(=O)NC(=O)C1 [Dexrazoxane] | 133.3 mL/min |
| C[C@H](Cn1cnc2c(N)ncnc21)OCP(=O)(O)O [Tenofovir] | 220.0 mL/min |
| CCN(CC)CCNC(=O)c1ccc(NC(C)=O)cc1 [Acecainide] | 226.7 mL/min |
| CO/N=C(\C(=O)N[C@@H]1C(=O)N2C(C(=O)O)=C(CSc3nc(C)c(CC(=O)O)s3)CS[C@H]12)c1csc(N)n1 [Cefodizime] | 29.1 mL/min |
| CC(C)(C)NCC(O)c1ccc(O)c(CO)c1 (stereo not drawn) [Salbutamol] | 289.9 mL/min |
| O=S(=O)(O)CCS [Mesna] | 265.8 mL/min |

| Compound | Overall weighted mean CLR |
| --- | --- |
| CN/C(=N/CCSCc1nc[nH]c1C)NC#N [Cimetidine] | 417.0 mL/min |
| CCn1cc(C(=O)O)c(=O)c2cc(F)c(N3CCNC(C)C3)c(F)c21 (stereo not drawn) [Lomefloxacin] | 155.8 mL/min |
| CC(C)c1nc(N(C)S(C)(=O)=O)nc(-c2ccc(F)cc2)c1/C=C/[C@@H](O)C[C@@H](O)CC(=O)O [Rosuvastatin] | 212.5 mL/min |
| Nc1nnc(-c2cccc(Cl)c2Cl)c(N)n1 [Lamotrigine] | 2.5 mL/min |
| CC(CC(c1ccccc1)c1ccccc1)NC(C)(C)C (stereo not drawn) [Terodiline] | 11.1 mL/min |
| CCN(CC)CCNC(=O)c1ccc(NS(C)(=O)=O)cc1 [Sematilide] | 262.0 mL/min |
| Nc1cccc2c1CN(C1CCC(=O)NC1=O)C2=O (stereo not drawn) [Lenalidomide] | 190.4 mL/min |
| Cc1cn([C@H]2C[C@H](N=[N+]=[N-])[C@@H](CO)O2)c(=O)[nH]c1=O [Zidovudine] | 258.1 mL/min |
| CCN(CC)CCCC(C)Nc1ccnc2cc(Cl)ccc12 (stereo not drawn) [Chloroquine] | 167.2 mL/min |
| CO[C@@]1(NC(=O)C2SC(=C(C(N)=O)C(=O)O)S2)C(=O)N2C(C(=O)O)=C(CSc3nnnn3C)CS[C@@H]21 (stereo partly drawn) [Cefotetan] | 23.9 mL/min |
| Cc1cn([C@@H]2C[C@@H](O)[C@H](CO)O2)c(=O)[nH]c1=O [Telbivudine] | 116.7 mL/min |
| CC(C)(C)NC[C@H](O)COc1nsnc1N1CCOCC1 [Timolol] | 125.1 mL/min |
| CCCc1nc(C(C)(C)O)c(C(=O)O)n1Cc1ccc(-c2ccccc2-c2nnn[nH]2)cc1 [Olmesartan] | 11.4 mL/min |
| CC(C)NCC(O)COc1ccc(COCCOC(C)C)cc1 (stereo not drawn) [Bisoprolol] | 157.0 mL/min |
| CO/N=C(\C(=O)N[C@@H]1C(=O)N2C(C(=O)O)=C(COC(C)=O)CS[C@H]12)c1csc(N)n1 [Cefotaxime] | 119.7 mL/min |
| NC1CCN(c2c(F)cc3c(=O)c(C(=O)O)cn(C4CC4)c3c2Cl)C1 (stereo not drawn) [Clinafloxacin] | 191.0 mL/min |
| CCOc1ccc2ccccc2c1C(=O)N[C@@H]1C(=O)N2[C@@H]1SC(C)(C)[C@@H]2C(=O)O [Nafcillin] | 138.4 mL/min |
| O=C1Nc2ccc(Cl)cc2C(c2ccccc2Cl)=NC1O (stereo not drawn) [Lorazepam] | 0.3 mL/min |
| CO[C@H]1/C=C/O[C@@]2(C)Oc3c(C)c(O)c4c(O)c(c(/C=N/N5CCN(C)CC5)c(O)c4c3C2=O)NC(=O)/C(C)=C\C=C\[C@H](C)[C@H](O)[C@@H](C)[C@@H](O)[C@@H](C)[C@H](OC(C)=O)[C@@H]1C [Rifampin] | 18.7 mL/min |
| CO[C@@]1(NC(=O)C(C(=O)O)c2ccc(O)cc2)C(=O)N2C(C(=O)O)=C(CSc3nnnn3C)CO[C@@H]21 (stereo partly drawn) [Moxalactam] | 69.5 mL/min |
| COc1c(N2CCNC(C)C2)c(F)cc2c(=O)c(C(=O)O)cn(C3CC3)c12 (stereo not drawn) [Gatifloxacin] | 168.4 mL/min |
| CC(=O)N[C@H]1[C@H]([C@H](O)[C@H](O)CO)OC(C(=O)O)=C[C@@H]1N=C(N)N [Zanamivir] | 89.1 mL/min |
| CC(CN1c2ccccc2Sc2ccccc21)N(C)C (stereo not drawn) [Promethazine] | 5.9 mL/min |
| C[C@H]1NCc2cc(-c3ccc4c(=O)c(C(=O)O)cn(C5CC5)c4c3OC(F)F)ccc21 [Garenoxacin] | 41.8 mL/min |

| Compound | Overall weighted mean CLR |
| --- | --- |
| O=C(O)C1=C(CSc2nnnn2CS(=O)(=O)O)CS[C@@H]2[C@H](NC(=O)[C@H](O)c3ccccc3)C(=O)N12 [Cefonicid] | 18.3 mL/min |
| COc1ccc([C@@H]2Sc3ccccc3N(CCN(C)C)C(=O)[C@@H]2OC(C)=O)cc1 [Diltiazem] | 48.0 mL/min |
| CC1CN(c2cc3c(cc2F)c(=O)c(C(=O)O)cn3-c2ccc(F)cc2F)CCN1 (stereo not drawn) [Temafloxacin] | 122.5 mL/min |
| CN[C@@H]1CCc2[nH]c3ccc(C(N)=O)cc3c2C1 [Frovatriptan] | 73.5 mL/min |
| C[C@H]1COc2c(N3CCN(C)CC3)c(F)cc3c(=O)c(C(=O)O)cn1c23 [Levofloxacin] | 116.9 mL/min |
| CO[C@@]1(NC(=O)CSCC#N)C(=O)N2C(C(=O)O)=C(CSc3nnnn3C)CS[C@@H]21 [Cefmetazole] | 110.2 mL/min |
| NS(=O)(=O)c1cc(C2(O)NC(=O)c3ccccc32)ccc1Cl (stereo not drawn) [Chlorthalidone] | 62.3 mL/min |
| CC[C@H](C)C(=O)O[C@H]1C[C@H](O)C=C2C=C[C@H](C)[C@H](CC[C@@H](O)C[C@@H](O)CC(=O)O)[C@H]21 [Pravastatin] | 414.6 mL/min |
| CO[C@@]1(NC(=O)C(C(=O)O)c2ccsc2)C(=O)N2[C@@H](C(=O)O)C(C)(C)S[C@@H]21 (stereo partly drawn) [Temocillin] | 39.8 mL/min |
| CC(C)(O/N=C(\C(=O)N[C@@H]1C(=O)N2C(C(=O)[O-])=C(C[n+]3ccccc3)CS[C@H]12)c1csc(N)n1)C(=O)O [Ceftazidime] | 98.0 mL/min |
| CO[C@H]1/C=C/O[C@@]2(C)Oc3c(C)c(O)c4c(c3C2=O)C2=NC3(CCN(CC(C)C)CC3)NC2=C(NC(=O)/C(C)=C\C=C\[C@H](C)[C@H](O)[C@@H](C)[C@@H](O)[C@@H](C)[C@H](OC(C)=O)[C@@H]1C)C4=O [Rifabutin] | 58.4 mL/min |
| CNC(C)Cc1ccc2c(c1)OCO2 (stereo not drawn) [MDMA] | 215.0 mL/min |
| NC12CC3CC(CC(C3)C1)C2 [Amantadine] | 219.2 mL/min |
| C[C@H]1O[C@@H](O[C@H]2[C@@H](O)C[C@H](O[C@H]3[C@@H](O)C[C@H](O[C@H]4CC[C@@]5(C)[C@H](CC[C@@H]6[C@@H]5C[C@@H](O)[C@]5(C)[C@@H](C7=CC(=O)OC7)CC[C@]65O)C4)O[C@@H]3C)O[C@@H]2C)C[C@H](O)[C@@H]1O [Digoxin] | 151.1 mL/min |
| Cc1cccc(C)c1NC(=O)CC12CCCN1CCC2 [Pilsicainide] | 234.7 mL/min |
| CO/N=C(\C(=O)N[C@@H]1C(=O)N2C(C(=O)[O-])=C(C[n+]3cccc4c3CCC4)CS[C@H]12)c1csc(N)n1 [Cefpirome] | 97.5 mL/min |
| CC12CC3CC(C)(C1)CC(N)(C3)C2 [Memantine] | 117.1 mL/min |
| COc1cc(Cc2cnc(N)nc2N)cc(OC)c1OC [Trimethoprim] | 78.2 mL/min |
| CC1(C)S[C@@H]2[C@H](NC(=O)[C@H](NC(=O)N3CCNC3=O)c3ccccc3)C(=O)N2[C@H]1C(=O)O [Azlocillin] | 83.3 mL/min |
| COc1ccc2c3c1O[C@H]1C[C@@H](O)C=C[C@@]31CCN(C)C2 [Galantamine] | 57.7 mL/min |
| CCCC(=O)Nc1ccc(OCC(O)CNC(C)C)c(C(C)=O)c1 (stereo not drawn) [Acebutolol] | 222.8 mL/min |
| Nc1ncnc2c1ncn2CCOCP(=O)(O)O [Adefovir] | 200.4 mL/min |
| Cc1nnc(C(=O)NC(C)(C)c2nc(C(=O)NCc3ccc(F)cc3)c(O)c(=O)n2C)o1 [Raltegravir] | 55.0 mL/min |
| NCc1ccccc1CC(=O)N[C@@H]1C(=O)N2C(C(=O)O)=C(CSc3nnnn3CC(=O)O)CS[C@H]12 [Ceforanide] | 46.8 mL/min |
